In patent US20100292287A1, “Periodontitis treatment” (priority 2009, published 2010):

Legend:
[1] = test system: diabetic Sprague Dawley rats injected with lipopolysaccharide from Porphyromonas gingivalis; assay: LPS-induced periodontitis (alveolar bone loss, root/enamel ratio) in streptozotocin diabetic rats fed ARI diets; format: in vivo, rat; settings: for ratio of exposed root to enamel area, LPS side: LPS injected (right) side; for ratio of exposed root to enamel area, LPS side / ratio of exposed root to enamel area, PBS side: mean±S.E.M.; for ratio of exposed root to enamel area, PBS side: PBS injected (left, internal control) side
Method: A group of 80 approximately 81-100 g male Sprague Dawley rats were utilized for this study. Diabetes was induced in 40 of these rats by tail vein injection of 75 mg/kg of streptozotocin. After 3 days, blood glucose (BG) levels in blood obtained from tail vein lacerations were analyzed with a commercial glucometer (Freestyle by TheraSense, Alameda, Calif.). Each rat with BG levels <300 mg/dL were reinjected with streptozotocin. Again, BGs were measured after 3 days, and the procedure was repeated a third time for remaining rats with BGs <300 mg/dL.
(§1) All rats with blood glucose levels >300 mg/dL were then equally divided into 4 groups. The first diabetic group of 8 rats received standard rat diet (BioServe), the second received similar rat diet containing 0.015% of tolrestat, the third group received similar diet containing 0.0125% imirestat, and the fourth group received similar diet containing 0.08% quercetin. Experimental diets were initiated 10 days following initial streptozotocin injections and continued for 10 weeks until the studies were terminated. Non-diabetic age-matched rats were also added as additional non-diabetic controls. These consisted of 4 groups of 8 rats each as follows: an untreated non-diabetic group received standard rat diet, the second control group received similar rat diet containing 0.015% of tolrestat, the third control group received similar diet containing 0.0125% imirestat, and the fourth control group received similar diet containing 0.08% quercetin.
A maximum of 3 rats were housed per cage. Weekly consumption of diet/cage and body weights of each cage occupant was measured throughout the study. Drugs diets were prepared by adding the appropriate weight of drug to 3 kg portions of standard rat chow as follows. The weighed drug dissolved in 400 mL of ethanol was uniformly sprayed onto a monolayer of the rat chow. After the upper layer of chow was uniformly wetted, the chow was mixed and again formed into a monolayer, and the procedure was repeated until the entire drug solution was utilized. Following overnight oven drying to ensure that all solvent was removed, weighed amounts of diet were administered to each appropriate group of animals.
(§2) Forty-four days after initiation of diets, each rat was anesthetized with 4% isoflurane vapor in an induction chamber. Each rat was then placed on its back and the palatal gingiva between the first and second maxillary molars on the right side was injected with 10 μL of a phosphate-buffered saline (PBS) solution containing 1 mg/mL lipopolysaccharide LPS from Porphyromonas gingivalis (InvivoGen, San Diego, Calif.) using an insulin syringe equipped with a blunted edge 30-gauge needle to induce the formation of periodontitis. As a control, 10 μL of PBS was similarly injected into the left side of the jaw. This injection was followed by two additional injections at 48-hour intervals. Twenty-four days after the final injection, all rats were euthanized with carbon dioxide gas. The heads were decapitated with a guillotine and frozen for subsequent defleshing. Blood from each rat was obtained by heart puncture and HbA1c levels were measured using the Metrika A1cNOW Plus System Test Strips (Fisher Healthcare).
Each thawed head was manually defleshed using standard dental instruments by Dr. James O'Meara, Assoc. Professor of General Dentistry at Creighton University of Omaha, Nebr. The maxillary area was separated from the remaining skull using bone cutters, and each defleshed left and right maxillary alveolus with molars were stored in PBS buffer. Finally, all cleaned maxillary alveoli were placed in 3% aqueous peroxide solution overnight and air dried. They were then stained in 5% aqueous toluidine blue to identify the cemento-enamel junction (CEJ) on the molars. After air drying, each stained preparation was examined under a dissecting microscope and cleaned of any remaining flesh particles using the tip of a 20-gauge needle. […]

[2] = test system: non-diabetic Sprague Dawley rats injected with lipopolysaccharide from Porphyromonas gingivalis; assay: LPS-induced periodontitis (alveolar bone loss, root/enamel ratio) in non-diabetic rats fed ARI diets; format: in vivo, rat; settings: for ratio of exposed root to enamel area, LPS side / ratio of exposed root to enamel area, PBS side: non-diabetic rats; for ratio of exposed root to enamel area, LPS side: first value of 'LPS and PBS sides ... respective ratios'; for ratio of exposed root to enamel area, PBS side: second value of 'LPS and PBS sides ... respective ratios'; for difference in the ratios between the LPS and PBS sides: normal (non-diabetic) rats, FIG. 7
Method: as §1, §2
Each thawed head was manually defleshed using standard dental instruments by Dr. James O'Meara, Assoc. Professor of General Dentistry at Creighton University of Omaha, Nebr. The maxillary area was separated from the remaining skull using bone cutters, and each defleshed left and right maxillary alveolus with molars were stored in PBS buffer. Finally, all cleaned maxillary alveoli were placed in 3% aqueous peroxide solution overnight and air dried. They were then stained in 5% aqueous toluidine blue to identify the cemento-enamel junction (CEJ) on the molars. After air drying, each stained preparation was examined under a dissecting microscope and cleaned of any remaining flesh particles using the tip of a 20-gauge needle. Each palatal preparation was then placed onto a 20 mm petri dish containing ultrafine chromatography grade silica and a mm ruler. The maxilla-molar area palatal sides were then photographed using a PAXcam2+ USB2 Digital Microscope Camera attached to a Zeiss dissection microscope at 40' magnification. 2.0 MP images were captured with 1616×1216 image resolution. The images were analyzed using Pax-it software (Paxcam, Chicago, Ill.). Care was taken to obtain images with consistent camera angles.
In each image the two molars between which the injections were made were analyzed. The exposed side of each molar was manually outlined along with the area encompassed by the cemento-enamel junction (CEJ) and exposed root area. To facilitate differentiation of the exposed root area and the CEJ, each photograph was photo-enhanced as required using sharpening or desaturating techniques. Multiple tracings were obtained and averaged for each image. Moreover, since tooth movement can also increase variability, multiple images of the same sample were also analyzed, if necessary. The area measurements from both molars were combined, and from these combined area measurements, a ratio of exposed root area (root to the CEJ) versus enamel area was obtained. […]

diabetic mice = settings: cited from earlier work
[3] = commercial version (Alredase), withdrawn 1996 or 1997; cited from earlier work
TNF-α = biological target: T1, TNF-α (Mus musculus, UniProt P06804); settings: diabetic mice inoculated with Porphyromonas gingivalis; cited from earlier work
T1 construct: host or cells: diabetic mice (in vivo, endogenous TNF-α)
T1 sequence (P06804 80-235 limits assumed): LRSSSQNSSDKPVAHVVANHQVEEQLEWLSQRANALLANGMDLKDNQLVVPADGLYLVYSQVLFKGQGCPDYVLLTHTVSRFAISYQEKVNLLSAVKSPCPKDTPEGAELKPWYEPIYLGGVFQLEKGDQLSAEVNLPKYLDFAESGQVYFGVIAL

crevicular PMNs = settings: rats with chemically induced diabetes; cited from earlier work

Row | Compound | ratio of exposed root to enamel area, LPS side [1] | ratio of exposed root to enamel area, PBS side [1] | ratio of exposed root to enamel area, LPS side [2] | ratio of exposed root to enamel area, PBS side [2] | difference in the ratios between the LPS and PBS sides [2] | further results
1 | O=c1c(O)c(-c2ccc(O)c(O)c2)oc2cc(O)cc(O)c12 [quercetin] | 0.448±0.057 | 0.440±0.023 | 0.406±0.018 | 0.417±0.042 | no significant difference | –
2 | N-benzyloxycarbonyl-Val-Ala-Asp-fluoromethyl-ketone [z-VAD-fmk] | – | – | – | – | – | healing parameters (fibroblast density, collagen I and III mRNA, matrix formation, bone-lining cells, new bone formation) (diabetic mice): significant improvements in several healing parameters
3 | COc1ccc2c(C(=S)N(C)CC(=O)O)cccc2c1C(F)(F)F [tolrestat] | – | 0.435±0.010 | 0.435±0.039 | 0.422±0.036 | no significant difference | reported adverse events leading to market withdrawal [3]: fatalities from hepatic necrosis
4 | Enbrel | – | – | – | – | – | prolonged cytokine expression (TNF-α): reversal of the prolonged cytokine expression
5 | insulin: insulin administration to diabetic rats | – | – | – | – | – | chemotactic response of crevicular PMNs to casein (crevicular PMNs): reverses this decrease
6 | O=C1NC(=O)C2(N1)c1cc(F)ccc1-c1ccc(F)cc12 [imirestat] | 0.439±0.043 | 0.421±0.029 | 0.412±0.016 | 0.439±0.0132 | no significant difference | alveolar bone loss ([1]; result in words): effective in reducing alveolar bone loss
